From PMC4453034, “A functional comparison of the domestic cat bitter receptors Tas2r38 and Tas2r43 with their human orthologs” (BMC Neuroscience, 2015)
Entries after “also recorded” stand apart in the source; their conditions may differ. Structures can show the parent of a compound that is named as a salt. Where two headings read alike, the source gives them in different places.

Assays:
human TAS2R43 [1] = target: T1, human TAS2R43 (Homo sapiens, UniProt P59537); test: Ca2+ flux assay, transiently transfected cells with Gα16-gust44; settings: for calcium flux response of human TAS2R43: PTC 100 μM, C4-HSL, aloin 300 μM, denatonium 1 mM, saccharin 6.7 mM; for Hill Slope TAS2R43 human: calcium flux dose response
T1 sequence (P59537 1-309): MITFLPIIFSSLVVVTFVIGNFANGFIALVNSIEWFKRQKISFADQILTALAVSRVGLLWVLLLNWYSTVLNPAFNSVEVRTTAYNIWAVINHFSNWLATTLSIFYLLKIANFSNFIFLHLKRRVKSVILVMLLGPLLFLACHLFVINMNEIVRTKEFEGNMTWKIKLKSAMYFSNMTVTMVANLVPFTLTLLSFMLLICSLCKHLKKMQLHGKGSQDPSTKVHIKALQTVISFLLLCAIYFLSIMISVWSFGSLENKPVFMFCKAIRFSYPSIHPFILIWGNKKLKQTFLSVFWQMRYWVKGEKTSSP

cat Tas2r43 [2] = target: cat Tas2r43 (Felis catus, UniProt A0ABI8A390); test: as above; settings: for calcium flux response of cat Tas2r43: PTC 100 μM, aloin 300 μM, denatonium 1 mM, saccharin 6.7 mM; for Hill Slope Tas2r43 cat: calcium flux dose response
cat Tas2r43 (Felis catus, UniProt A0ABI8A390), sequence (A0ABI8A390 entry or part of it): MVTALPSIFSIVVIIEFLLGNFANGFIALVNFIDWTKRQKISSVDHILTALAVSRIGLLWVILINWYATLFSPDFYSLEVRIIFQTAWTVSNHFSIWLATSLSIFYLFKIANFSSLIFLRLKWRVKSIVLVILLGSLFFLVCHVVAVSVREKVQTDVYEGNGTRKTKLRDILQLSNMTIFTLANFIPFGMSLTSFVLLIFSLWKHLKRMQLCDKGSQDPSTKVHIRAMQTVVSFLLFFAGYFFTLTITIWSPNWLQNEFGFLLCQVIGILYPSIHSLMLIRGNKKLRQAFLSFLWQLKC

human TAS2R43 [3] = target: T1, human TAS2R43; set-up: created similarly, expressing full-length receptor under the control of a CMV promoter; expressed in transfected cells; host or cells: mammalian cells (ATCC CRL-11268), co-transfected with Gα16-gust44; settings: published value for human TAS2R43; cited from earlier work
human TAS2R16 = target: T2, human TAS2R16 (Homo sapiens, UniProt Q9NYV7); test: Ca2+ flux assay, negative control receptor; settings: PTC 100 μM, C4-HSL
T2 sequence (Q9NYV7 1-291): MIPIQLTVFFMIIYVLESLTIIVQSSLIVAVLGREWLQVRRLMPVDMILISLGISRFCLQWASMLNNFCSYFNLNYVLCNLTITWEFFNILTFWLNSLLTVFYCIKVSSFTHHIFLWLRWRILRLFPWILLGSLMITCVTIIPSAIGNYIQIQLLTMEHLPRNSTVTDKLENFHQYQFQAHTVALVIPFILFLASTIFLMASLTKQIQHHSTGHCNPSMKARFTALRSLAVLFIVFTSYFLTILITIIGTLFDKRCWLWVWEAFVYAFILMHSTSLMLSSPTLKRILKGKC

human TAS2R38 [4] = target: T3, human TAS2R38 (Homo sapiens, UniProt P59533); test: Ca2+ flux assay, transiently transfected cells with Gα16-gust44; settings: for calcium flux response of human TAS2R38: PTC 100 μM, PROP 30 μM, C4-HSL 200 μM; for Hill Slope TAS2R38 human: calcium flux dose response
T3 sequence (P59533 1-333): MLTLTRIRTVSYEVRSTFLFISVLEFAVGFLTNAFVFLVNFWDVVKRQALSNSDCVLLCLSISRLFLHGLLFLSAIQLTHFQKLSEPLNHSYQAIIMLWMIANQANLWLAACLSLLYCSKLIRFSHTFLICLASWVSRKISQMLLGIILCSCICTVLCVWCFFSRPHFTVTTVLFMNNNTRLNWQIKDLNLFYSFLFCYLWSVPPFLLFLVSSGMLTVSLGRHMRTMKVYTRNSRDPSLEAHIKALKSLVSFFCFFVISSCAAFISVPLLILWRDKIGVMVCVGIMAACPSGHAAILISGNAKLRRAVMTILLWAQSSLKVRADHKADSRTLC

cat Tas2r38 = target: T4, cat Tas2r38 (Felis catus, UniProt Z9BUK5U3L3); test: as above; settings: for calcium flux response of cat Tas2r38: PTC 100 μM, PROP 30 μM, C4-HSL 200 μM
T4 sequence (Z9BUK5U3L3 1-334): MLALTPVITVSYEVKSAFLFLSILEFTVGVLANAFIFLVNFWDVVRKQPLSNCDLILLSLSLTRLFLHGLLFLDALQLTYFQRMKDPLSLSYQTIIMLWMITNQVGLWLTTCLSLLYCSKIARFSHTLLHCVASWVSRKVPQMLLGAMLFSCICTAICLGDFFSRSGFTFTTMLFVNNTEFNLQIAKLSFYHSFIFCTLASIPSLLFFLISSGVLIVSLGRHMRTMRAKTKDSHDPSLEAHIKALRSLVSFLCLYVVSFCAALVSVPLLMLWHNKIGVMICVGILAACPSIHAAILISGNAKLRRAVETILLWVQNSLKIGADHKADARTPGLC

cat Tas2r43 [5] = test: as above; settings: PTC 100 μM, aloin 300 μM, denatonium 1 mM, saccharin 6.7 mM
human TAS2R38 [6] = target: T3, human TAS2R38; set-up: created similarly, expressing full-length receptor under the control of a CMV promoter; expressed in transfected cells; host or cells: mammalian cells (ATCC CRL-11268), co-transfected with Gα16-gust44; method as in PMID 15723792; settings: published value for human TAS2R38; cited from earlier work
human TAS2R31 = target: T5, human TAS2R31 (Homo sapiens, UniProt P59538); test: Ca2+ flux assay, probenecid specificity control; assay type: cell-based; settings: 1 mM probenecid, one hour pre-incubation
T5 construct: expressed in transfected cells; host or cells: transiently transfected cells expressing the receptor and Gα16-gust44
T5 sequence (P59538 1-309): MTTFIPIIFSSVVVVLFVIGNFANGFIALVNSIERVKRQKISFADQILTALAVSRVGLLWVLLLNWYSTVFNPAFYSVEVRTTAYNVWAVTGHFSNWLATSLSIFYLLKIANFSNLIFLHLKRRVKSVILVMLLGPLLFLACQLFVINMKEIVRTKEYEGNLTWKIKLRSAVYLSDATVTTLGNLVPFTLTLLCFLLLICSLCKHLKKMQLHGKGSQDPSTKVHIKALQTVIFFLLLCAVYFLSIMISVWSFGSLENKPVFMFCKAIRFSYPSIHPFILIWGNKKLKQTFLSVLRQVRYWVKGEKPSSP

[7] = 1 mM probenecid, one hour pre-incubation, 33 μM PTC
[8] = 1 mM probenecid, one hour pre-incubation, 300 μM aloin
[9] = 1 mM probenecid, one hour pre-incubation, 1 mM denatonium

## O=C1c2c(O)cccc2C([C@@H]2O[C@H](CO)[C@@H](O)[C@H](O)[C@H]2O)c2cc(CO)cc(O)c21 (stereo partly shown) [Aloin, aloin]
Human TAS2R43 [1]
  EC50: 35 µM
  calcium flux response of human TAS2R43: responded
  Hill Slope TAS2R43 human: 0.8
Cat Tas2r43 [2]
  calcium flux response of cat Tas2r43: responded
  Hill Slope Tas2r43 cat: 1.0
Cat Tas2r43 [2]; from EC50 values
  fold more sensitive, human TAS2R43 vs cat Tas2r43: about 10 fold
Human TAS2R43 [3]
  EC50: 1.2 µM

## CC[N+](CC)(CC(=O)Nc1c(C)cccc1C)Cc1ccccc1 [Denatonium, denatonium benzoate]
Human TAS2R43 [1]
  EC50: 1210 µM
  calcium flux response of human TAS2R43: responded
  Hill Slope TAS2R43 human: 1.3
Cat Tas2r43 [2]
  calcium flux response of cat Tas2r43: responded
  Hill Slope Tas2r43 cat: 1.7
Cat Tas2r43 [2]; from EC50 values
  fold lower EC50, cat Tas2r43 vs human TAS2R43: greater than 5 fold
Human TAS2R43 [3]
  EC50: 300 µM

## CCCC(=O)N[C@H]1CCOC1=O [C4-HSL]
Human TAS2R16
  calcium flux response of human TAS2R16: no response
Human TAS2R38 [4]
  calcium flux response of human TAS2R38: responded weakly but specifically
Cat Tas2r38
  calcium flux response of cat Tas2r38: responded weakly but specifically
Human TAS2R43 [1]
  calcium flux response of human TAS2R43: no response

## O=C1NS(=O)(=O)c2ccccc21 [Saccharin, saccharin sodium salt hydrate]
Cat Tas2r43 [5]
  calcium flux response of cat Tas2r43: did not elicit a response

## NC(=S)Nc1ccccc1 [PTC, phenylthiocarbamide]
Human TAS2R16
  calcium flux response of human TAS2R16: did not respond
Human TAS2R38 [4]
  EC50: 2.3 µM
  calcium flux response of human TAS2R38: strong calcium flux
  Hill Slope TAS2R38 human: 1.0
Human TAS2R38 [4]; PTC at 100 μM
  peak fluorescence over baseline: 27%
Cat Tas2r38
  calcium flux response of cat Tas2r38: strong calcium flux
Cat Tas2r38; PTC at 100 μM
  peak fluorescence over baseline: 40%
Cat Tas2r38; calcium flux dose response
  Hill Slope Tas2r38 cat: 2.6
Cat Tas2r38; from EC50 values
  fold less concentration sensitive, cat Tas2r38 vs human TAS2R38: at least 10 fold
Cat Tas2r38; read-out: EC50 Tas2r38 cat, calcium flux dose response, 22 h post-transfection
  EC50: 47 µM
Human TAS2R43 [1]
  calcium flux response of human TAS2R43: did not respond
Cat Tas2r43 [5]
  calcium flux response of cat Tas2r43: did not respond
Human TAS2R38 [6]
  EC50: 1.1 µM

## CCCN(CCC)S(=O)(=O)c1ccc(C(=O)O)cc1 [probenecid]
Human TAS2R31
  probenecid effect on human TAS2R31 response to saccharin: stimulation of flux
Human TAS2R38 [4]; [7]
  probenecid effect on human TAS2R38 response to PTC: failed to induce a calcium flux; also recorded: inhibited completely
Cat Tas2r38; [7]
  probenecid effect on cat Tas2r38 response to PTC: failed to induce a calcium flux; also recorded: inhibited completely
Human TAS2R43 [1]; [8]
  probenecid effect on human TAS2R43 response to aloin: inhibited
Human TAS2R43 [1]; [9]
  probenecid effect on human TAS2R43 response to denatonium: inhibited
Cat Tas2r43 [2]; [8]
  probenecid effect on cat Tas2r43 response to aloin: inhibited
Cat Tas2r43 [2]; [9]
  probenecid effect on cat Tas2r43 response to denatonium: inhibited

## CCCc1cc(=O)[nH]c(=S)[nH]1 [PROP, 6-propyl-2-thiouracil]
Human TAS2R38 [4]
  EC50: 2.2 µM
  calcium flux response of human TAS2R38: responded
  Hill Slope TAS2R38 human: 1.59
Human TAS2R38 [6]
  EC50: 2.1 µM
